Series [1] relates to tyrosinase. Nature of the series: Tyrosinase inhibitory effect (method of Test Example 1-2). It counts as biochemical. To be noted: 50 mg sample in 100 ml ethanol, diluted 10-fold; 50 μl sample solution; 37° C., 10 minutes; absorbance 490 nm. As to the method: 50 mg of a sample to be evaluated for tyrosinase inhibitory activity was dissolved in ethanol to make 100 ml of a solution. 10 ml of the solution was taken, and ethanol was added thereto to make 100 ml of a sample solution. 500 μl of a substrate solution, 450 μl of purified water and 50 μl of the sample solution are added to and mixed with 500 μl of buffer, and 50 μl of an enzyme (tyrosinase) solution is added to the mixture. The resulting mixture is allowed to react at 37° C. for 10 minutes, and then immediately allowed to stand on ice for 5 minutes, and the absorbance at 490 nm is measured. The tyrosinase inhibitory effect of the sample is evaluated based on the absorbance of the sample compared to the absorbance of a blank sample.

Series [2] concerns the target T1, tyrosinase (Homo sapiens, UniProt P14679).
T1 sequence (P14679 19-529): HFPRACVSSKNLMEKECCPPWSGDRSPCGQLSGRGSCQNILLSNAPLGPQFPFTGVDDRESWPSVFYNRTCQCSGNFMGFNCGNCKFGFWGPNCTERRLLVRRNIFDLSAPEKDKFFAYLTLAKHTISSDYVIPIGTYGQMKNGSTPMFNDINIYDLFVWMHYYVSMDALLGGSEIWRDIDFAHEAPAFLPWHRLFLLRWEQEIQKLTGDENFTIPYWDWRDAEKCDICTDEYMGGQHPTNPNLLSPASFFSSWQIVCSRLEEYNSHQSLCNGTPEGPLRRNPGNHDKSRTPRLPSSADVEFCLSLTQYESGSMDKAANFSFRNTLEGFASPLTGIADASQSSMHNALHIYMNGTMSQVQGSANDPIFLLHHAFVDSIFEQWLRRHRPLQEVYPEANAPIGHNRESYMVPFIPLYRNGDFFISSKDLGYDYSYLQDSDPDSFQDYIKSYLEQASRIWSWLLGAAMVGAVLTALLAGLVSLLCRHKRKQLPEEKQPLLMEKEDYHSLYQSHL
To be noted: compared to kojic acid; known; cited from earlier work.

Series [3] is described as follows: Partition coefficient in two-phase solvent system. To be noted: hexane/ethyl acetate/methanol/water 5/5/5/2. It counts as physicochemical. The procedure:
The partition coefficient of kazinol C was measured in the following manner First, 1 mg of the extract of Example 3 was placed in a 10-ml test tube, and 2 ml of each of the upper layer solution and lower layer solution of a two-phase solution system, which reached equilibrium, was added thereto, and the mixture was shaken intensively for 1 minute. After the two phases have reached equilibrium, 100 μl of each of the upper layer solution and the lower layer solution was taken, dried, dissolved in 1 ml of ethanol, and analyzed by HPLC. The value obtained by dividing the amount of kazinol C in the upper layer solution by the amount of kazinol C in the lower layer solution was determined as partition coefficient.

Series [4] has as its system mushroom tyrosinase. Description: Inhibition of tyrosinase activity (L-tyrosine substrate). The class given is biochemical. The procedure: First, as test samples, arbutin and the composition of Preparation Example 6 were prepared at various concentrations, and an enzyme was added thereto in an amount corresponding to 10 units, after which 0.1M phosphate buffer was added thereto to a final volume of 100 μl. 100 μl of 0.03% L-tyrosine substrate solution was added thereto, and then immediately, the absorbance at 475 nm was measured. Then, the mixture was allowed to react at 37° C. for 10 minutes, after which it was placed on ice to stop the reaction, and the absorbance was measured again.

Series [5] relates to B16 melanoma cells. Description: Inhibition of melanin production (α-MSH stimulated). To be noted: 100 μg/ml, 1 μM α-MSH. It counts as cell-based, mouse. As to the method: (§1) B16 melanoma cells from C57BL/6J (black, a/a) mouse melanoma were purchased from the Cell Line Bank. The cells were cultured in DMEM medium containing 10% fetal bovine serum (LONZA), 50 U/ml of penicillin and 50 μg/ml of […] streptomycin under the conditions of 37° C. and 10% CO2.
B16 melanoma cells were seeded in a 24-well plate at a density of 4×10^4 cells/well and cultured overnight so as to adhere well to the plate. Then, medium containing 1 μM α-MSH for promoting melanin production and each concentration of the test sample of Preparation Example 6 or arbutin was added to each well. The plate was incubated for 72 hours, and then 200 μl of the cell culture medium was taken and the absorbance at 405 nm was measured. Based on the measurement, the amount of melanin was calculated. The calculated amount of melanin was expressed as a percentage relative to the control (not treated with the test material), and the results are shown in Table 9 below.

Series [6] concerns B16 melanoma cells. Nature of the series: Cytotoxicity measurement (MTT assay). It counts as cell-based, mouse. As to the method:
as §1
B16 melanoma cells were seeded in a 96-well plate at a density of 1×10^4 cells/well and cultured for 1 day. The medium was replaced with fresh medium containing each of arbutin and various concentration of the composition of Preparation Example 6, and the cells were cultured again for 24 hours. 50 μl of an MIT solution obtained by dissolving MIT in cell culture medium at a concentration of 2 mg/ml was added to each well, and medium was added to each well to a final volume of 200 μl, after which the cells were incubated for 3-4 hours. The medium was removed, and the produced formazan crystals were dissolved in 150 μl of DMSO, after which the absorbance of the formazan solution was measured at 540 nm. The measured absorbance was expressed as a percentage relative to the control (not treated with the test material) to evaluate whether the test sample has cytotoxicity.
(In general: Formazan colour is commonly taken as a measure of viable cells.)

In brackets after ≈: the same amount, converted by molar mass.

As to `O=c1cc(CO)occ1O` [Control, kojic acid], the “Tyrosinase inhibitory effect (%)” value in series [1] was 80%.
As to `C=CC(C)(C)c1cc(CCCc2cc(O)c(O)c(CC=C(C)C)c2CC=C(C)C)c(O)cc1O` [kazinol C], in series [2], the “Tyrosinase inhibitory effect (in words)” value is “excellent tyrosinase inhibitory effect compared to kojic acid”. The “Partition coefficient (upper layer / lower layer)” value in series [3] came to 0.997.
Take `OC[C@H]1O[C@@H](Oc2ccc(O)cc2)[C@H](O)[C@@H](O)[C@@H]1O` [Arbutin, arbutin]: the “Inhibition (%) of tyrosinase activity” value in series [4] (125 μg/ml) turned out to be 38.1%. Also, the “Inhibition (%) of tyrosinase activity” value in series [4] (250 μg/ml) came to 56.5%. In addition, in series [4] (500 μg/ml), the “Inhibition (%) of tyrosinase activity” value is recorded as 87.7%. For the same molecule, the “IC50 (μg/ml), tyrosinase activity” value in series [4] (mushroom tyrosinase 10 units, 37° C., 10 minutes) is 209.6 µg/mL (≈ 770 µM). Besides, in series [5] (72 hours), the “Inhibition (%) of melanin production” value came to 33.7% and the “Melanin % relative to control” value was 66.3 ± 4.7%. For the same molecule, the inhibition (usually how much of the control response was suppressed) at 100 µg/mL in series [5] (Mus musculus, B16, 72 h) is 21.2%. In addition, in series [6] (100 μg/ml, 24 hours), the “% relative to control (MTT absorbance)” value amounted to 95.1 ± 4.8% and the “Toxicity (%)” value was 4.9%. Also, the “Cytotoxicity (in words)” value in series [6] (at a concentration of 100 μg/ml) is reported as “no cytotoxicity”.
